Patent publication US12071404B2, “Aza (indole)-, benzothiophene-, and benzofuran-3-sulfonamides” (UCB Pharma GmbH, priority 2016, dated 2024)

Biological target: GPR17 (Homo sapiens, UniProt Q13304)
Assay: Calcium mobilization functional assay (GPR17 Ca2+ assay)
Format: cell-based
Design: host or cells: Flp-In T-REx CHO
Conditions: CHO hGPR17 cells, inhibition of 50 nM MDL29,951, Calcium 5 dye, FLIPR; read-out: Ca2+ assay pIC50 (converted)
Experimental: Flp-In T-REx CHO cells stably expressing human GPR17 receptor (CHO hGPR17) from Evi Kostenis' lab (Bonn University, Germany) were cultured at 37° C. in a humidified atmosphere of 5% CO2. Cells were grown in DMEM with Nutrient Mixture F-12 supplemented with hygromycin B (500 μg/mL) and blasticidin (30 μg/mL). Expression from the Flp-In locus was induced by treatment with doxycycline (1 μg/mL) for 16-20 h prior assays.
GPR17 is a G-protein coupled receptor. GPR17 activation triggers Gq-type G-protein signaling resulting in endoplasmic reticulum calcium (Ca^2+) stores release in cytosol which can be measured using Calcium 5 dye, a fluorescent indicator dye of cytosolic Ca^2+ levels. All Examples were tested in GPR17 Ca^2+ assay to determine (screen) their GPR17 modulating activity.
CHO hGPR17 were defrosted and seeded at a density of 20,000 cells per well into black 384-well plates with clear bottom. Cells were incubated overnight at 37° C. in a humidified atmosphere of 5% CO2. Sixteen to twenty hours after seeding, CHO hGPR17 were loaded for 60 min with Calcium 5 dye, a cytosolic Ca^2+ indicator fluorescent dye, according to manufacturer's instructions. Fluorescent signal relative to cytosolic Ca^2+ concentration was recorded over time at room temperature in FLIPR Tetra reader. […] Then, 50 nM MDL29,951, a GPR17 agonist, was added to the cells. Inhibitory effects of varying concentrations test compounds were measured and resulting plC50s were determined. […] Analysis and curve fitting were performed in ActivityBase XE using XLfit 4-parameter logistic equation y=A+((B−A)/(1+((C/x)^D))) where A, B, C and D stand for minimum y, maximum y, IC50 and slope, respectively.
The activities of the Example compounds tested are depicted in the table in Section B2B below. The activity ranges A, B and C refer to plC50 values in the Ca^2+ assay as follows: “A”: plC50<7.5, “B”: plC50 7.5<x≤ 8.5, “C”: plC50>8.5

Chain of GPR17 (Q13304 whole entry): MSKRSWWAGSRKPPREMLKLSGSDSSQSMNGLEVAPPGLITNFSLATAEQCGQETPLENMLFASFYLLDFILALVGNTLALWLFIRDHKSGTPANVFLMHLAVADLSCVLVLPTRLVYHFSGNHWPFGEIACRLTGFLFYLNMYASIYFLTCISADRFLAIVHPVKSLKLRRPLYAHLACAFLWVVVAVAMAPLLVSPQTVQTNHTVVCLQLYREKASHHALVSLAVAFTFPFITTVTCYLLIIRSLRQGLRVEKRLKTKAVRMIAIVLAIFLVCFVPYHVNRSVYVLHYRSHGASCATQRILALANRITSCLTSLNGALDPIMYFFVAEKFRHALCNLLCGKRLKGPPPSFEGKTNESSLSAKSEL

SMILES	IC50 [nM]
O=S(=O)(Nc1cc(F)ccc1F)c1c[nH]c2ncc(I)cc12 [Compound I-81, N-(2,5-difluorophenyl)-5-iodo-1H-pyrrolo[2,3-b]pyridine-3-sulfonamide]	> 31.6
N#Cc1ccc(NS(=O)(=O)c2c[nH]c3c(Cl)cccc23)cc1 [Compound I-16, 7-chloro-N-(4-cyanophenyl)-1H-indole-3-sulfonamide]	> 31.6
O=S(=O)(Nc1ccc(Cl)cc1F)c1c[nH]c2cc(C(F)(F)F)ccc12 [Compound I-53, N-(4-chloro-2-fluorophenyl)-6-(trifluoromethyl)-1H-indole-3-sulfonamide]	> 31.6
O=S(=O)(Nc1cc(F)ccc1Br)c1c[nH]c2cc(Cl)ccc12 [Compound I-38, N-(2-bromo-5-fluorophenyl)-6-chloro-1H-indole-3-sulfonamide]	> 31.6
O=S(=O)(Nc1ccccc1F)c1c[nH]c2cc(Cl)ccc12 [Compound I-11, 6-chloro-N-(2-fluorophenyl)-1H-indole-3-sulfonamide]	> 31.6
O=S(=O)(Nc1ccc(I)cc1F)c1c[nH]c2c1ccc1ccccc12 [Compound I-47, N-(2-fluoro-4-iodophenyl)-1H-benzo[g]indole-3-sulfonamide]	> 31.6
COc1ccc2c(S(=O)(=O)Nc3cccc4nsnc34)c[nH]c2c1 [Compound I-64, N-(2,1,3-benzothiadiazol-4-yl)-6-methoxy-1H-indole-3-sulfonamide]	> 31.6
N#Cc1cc(F)c(NS(=O)(=O)c2c[nH]c3c4c(ccc23)CCC4)cc1F [Compound I-148, N-(4-cyano-2,5-difluorophenyl)-1,6,7,8-tetrahydrocyclopenta[g]indole-3-sulfonamide]	< 3.16
COCCOc1ccc2c(S(=O)(=O)Nc3cc(F)c(C#N)cc3F)c[nH]c2c1 [Compound I-146, N-(4-cyano-2,5-difluorophenyl)-6-(2-methoxyethoxy)-1H-indole-3-sulfonamide]	> 31.6
O=S(=O)(Nc1cccc2c1OCO2)c1c[nH]c2cc(F)ccc12 [Compound I-31, N-(1,3-benzodioxol-4-yl)-6-fluoro-1H-indole-3-sulfonamide]	> 31.6
COc1ccc2c(S(=O)(=O)Nc3cccc4c3OC(F)(F)O4)c[nH]c2c1 [Compound I-72, N-(2,2-difluoro-1,3-benzodioxol-4-yl)-6-methoxy-1H-indole-3-sulfonamide]	> 31.6
Cc1ccc2c(S(=O)(=O)Nc3cc(F)ccc3F)c[nH]c2c1 [Compound I-32, N-(2,5-difluorophenyl)-6-methyl-1H-indole-3-sulfonamide]	> 31.6
O=S(=O)(Nc1ccc2nsnc2c1)c1c[nH]c2c1ccc1ccccc12 [Compound I-157, N-(2,1,3-benzothiadiazol-5-yl)-1H-benzo[g]indole-3-sulfonamide]	3.16 to 31.6
O=S(=O)(Nc1cc(F)ccc1F)c1c[nH]c2cc3c(cc12)OCO3 [Compound I-30, N-(2,5-difluorophenyl)-5H-[1,3]dioxolo[4,5-f]indole-7-sulfonamide]	> 31.6
COc1ccc2c(S(=O)(=O)Nc3cc4c(cc3F)OC(F)(F)O4)c[nH]c2c1 [Compound I-71, 6-methoxy-N-(2,2,6-trifluoro-1,3-benzodioxol-5-yl)-1H-indole-3-sulfonamide]	> 31.6
O=S(=O)(Nc1cccc(F)c1Cl)c1c[nH]c2nc(Cl)ccc12 [Compound I-87, 6-chloro-N-(2-chloro-3-fluorophenyl)-1H-pyrrolo[2,3-b]pyridine-3-sulfonamide]	> 31.6
N#Cc1ccc2c(S(=O)(=O)Nc3cc(F)c(F)cc3F)c[nH]c2c1 [Compound I-75, 6-cyano-N-(2,4,5-trifluorophenyl)-1H-indole-3-sulfonamide]	> 31.6
N#Cc1ccc(NS(=O)(=O)c2c[nH]c3cc(Cl)ccc23)c2nsnc12 [Compound I-163, 6-chloro-N-(7-cyano-2,1,3-benzothiadiazol-4-yl)-1H-indole-3-sulfonamide]	> 31.6
O=S(=O)(Nc1cc2c(cc1F)OC(F)(F)O2)c1c[nH]c2c1ccc1cccnc12 [Compound I-70, N-(2,2,6-trifluoro-1,3-benzodioxol-5-yl)-1H-pyrrolo[3,2-h]quinoline-3-sulfonamide]	> 31.6
Cc1ccc2c(S(=O)(=O)Nc3ccc(C#N)cc3)c[nH]c2c1 [Compound I-20, N-(4-cyanophenyl)-6-methyl-1H-indole-3-sulfonamide]	3.16 to 31.6
O=S(=O)(Nc1cc(F)c(F)cc1F)c1c[nH]c2cc(F)ccc12 [Compound I-41, 6-fluoro-N-(2,4,5-trifluorophenyl)-1H-indole-3-sulfonamide]	> 31.6
O=S(=O)(Nc1cc(F)cc(F)c1)c1c[nH]c2cc(Cl)ccc12 [Compound I-21, 6-chloro-N-(3,5-difluorophenyl)-1H-indole-3-sulfonamide]	> 31.6
O=S(=O)(Nc1cccc(Cl)n1)c1c[nH]c2cc(Cl)ccc12 [Compound I-57, 6-chloro-N-(6-chloropyridin-2-yl)-1H-indole-3-sulfonamide]	> 31.6
C#Cc1ccc(NS(=O)(=O)c2c[nH]c3cc(Cl)ccc23)cc1 [Compound I-22, 6-chloro-N-(4-ethynylphenyl)-1H-indole-3-sulfonamide]	> 31.6
N#Cc1cc(F)c(NS(=O)(=O)c2c[nH]c3ccccc23)cc1F [Compound I-145, N-(4-cyano-2,5-difluorophenyl)-1H-indole-3-sulfonamide]	3.16 to 31.6

Second part, the molecule after the results:

IC50 [nM]	SMILES
3.16 to 31.6	N#Cc1cc(F)c(NS(=O)(=O)c2c[nH]c3c(Br)cccc23)cc1F [Compound I-167, 7-bromo-N-(4-cyano-2,5-difluorophenyl)-1H-indole-3-sulfonamide]
3.16 to 31.6	Cc1ccc2c(S(=O)(=O)Nc3cc(F)c(C#N)cc3F)c[nH]c2c1 [Compound I-187, N-(4-cyano-2,5-difluorophenyl)-6-methyl-1H-indole-3-sulfonamide]
< 3.16	COc1nc(NS(=O)(=O)c2c[nH]c3c(Br)c(Cl)ccc23)c(F)cc1CC#N [Compound I-322, 7-bromo-6-chloro-N-[5-(cyanomethyl)-3-fluoro-6-methoxypyridin-2-yl]-1H-indole-3-sulfonamide]
> 31.6	N#CCc1ccc(NS(=O)(=O)c2c[nH]c3cc(Cl)ccc23)cc1 [Compound I-180, 6-chloro-N-[4-(cyanomethyl)phenyl]-1H-indole-3-sulfonamide]
> 31.6	Cc1noc(C)c1-c1ccc2c(S(=O)(=O)Nc3ccc(C#N)cc3F)c[nH]c2c1 [Compound I-234, N-(4-cyano-2-fluorophenyl)-6-(3,5-dimethyl-1,2-oxazol-4-yl)-1H-indole-3-sulfonamide]
> 31.6	O=S(=O)(Nc1ccc2nsnc2c1)c1c[nH]c2cc(F)ccc12 [Compound I-169, N-(2,1,3-benzothiadiazol-5-yl)-6-fluoro-1H-indole-3-sulfonamide]
< 3.16	N#Cc1ccc(NS(=O)(=O)c2c[nH]c3cc(C(F)(F)F)ccc23)cc1 [Compound I-190, N-(4-cyanophenyl)-6-(trifluoromethyl)-1H-indole-3-sulfonamide]
> 31.6	N#Cc1ccc(NS(=O)(=O)c2c[nH]c3cc(F)ccc23)cc1 [Compound I-171, N-(4-cyanophenyl)-6-fluoro-1H-indole-3-sulfonamide]
> 31.6	O=S(=O)(Nc1ccc(S(F)(F)(F)(F)F)cc1)c1c[nH]c2cc(Cl)ccc12 [Compound I-217, 6-chloro-N-[4-(pentafluoro-lambda6-sulfanyl)phenyl]-1H-indole-3-sulfonamide]
> 31.6	O=S(=O)(Nc1cccc2nsnc12)c1c[nH]c2cc(F)cc(F)c12 [Compound I-166, N-(2,1,3-benzothiadiazol-4-yl)-4,6-difluoro-1H-indole-3-sulfonamide]
< 3.16	O=S(=O)(Nc1ccc2nsnc2c1)c1c[nH]c2cc(C(F)(F)F)ccc12 [Compound I-192, N-(2,1,3-benzothiadiazol-5-yl)-6-(trifluoromethyl)-1H-indole-3-sulfonamide]
> 31.6	COc1ccc(-c2ccc3c(S(=O)(=O)Nc4ccc(C#N)cc4F)c[nH]c3c2)cc1 [Compound I-232, N-(4-cyano-2-fluorophenyl)-6-(4-methoxyphenyl)-1H-indole-3-sulfonamide]
> 31.6	Cc1cc(NS(=O)(=O)c2c[nH]c3cc(Cl)ccc23)ccc1C#N [Compound I-209, 6-chloro-N-(4-cyano-3-methylphenyl)-1H-indole-3-sulfonamide]
> 31.6	CC(C#N)c1ccc(NS(=O)(=O)c2c[nH]c3cc(Cl)ccc23)c(F)c1 (stereo not drawn) [Compound I-207, 6-chloro-N-[4-(1-cyanoethyl)-2-fluorophenyl]-1H-indole-3-sulfonamide]
